Experimental data from the supplement of paper PMC11208160.

Assay: recombinant UMI read abundance after kanamycin selection (control-corrected) (log10(CPM+1)); higher = more efficient recombination; extreme values may be limits of the assay; sequences stand for … in AGTGCAGAGAAAATCGGCCAGTTTTCTCTGCCTGCAGTCCGCATGCCGTGGGACCCCTTGGGTTCTAACCTGTTGCCTAGATTTATGCAGCGGACTGCCTTTCTCCCAAAGTGATAAACCGG…AGGTTGGTTTCACT; site = the 11-nt donor
Method in brief: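 Sequencing read counts were converted to CPM, averaged over two replicates and scaled by control-derived factors. Results are given as log10(CPM+1). The reads covered the donor–target junction of recombinant UMIs from a pooled Escherichia coli screen of donor and donor-binding-loop pairs for the IS621 bridge recombinase.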
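Further: IS621 bridge recombinase in Escherichia coli cells against a fixed T5 target plasmid.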

Sequence | recombinant UMI read abundance (log10)
ATGTTTGCATGGACCGGTTTTCCCGGTAATCCGTATTTGCG (site ATGTTTGCTCG) | 1.95
ATGTTTGCATGGACCGGTTTTCCCGGTAATCCGTATTTGCT (site ATGTTTGCTAG) | 1.94
ATTCCCTCATGGACCGGTTTTCCCGGTAATCCGTATTTGAC (site ATTCCCTCTGT) | 3.23
ATTCCTACATGGACCGGTTTTCCCGGTAATCCGTATTTGAC (site ATTCCTACTGT) | 0.882
ATTCGAGCATGGACCGGTTTTCCCGGTAATCCGTATTTGCA (site ATTCGAGCTTG) | 1.49
ATTCGAGCATGGACCGGTTTTCCCGGTAATCCGTATTTGCA (site CTTCGAGCTTG) | 1.44
ATTCGAGCATGGACCGGTTTTCCCGGTAATCCGTATTTGCA (site GTTCGAGCTTG) | 0.663
ATTCGAGCATGGACCGGTTTTCCCGGTAATCCGTATTTGCA (site TTTCGAGCTTG) | 0.947
ATTCGCCCATGGACCGGTTTTCCCGGTAATCCGTATTTGAA (site ATTCGCCCTTT) | 0.156
ATTCGCTCATGGACCGGTTTTCCCGGTAATCCGTATTTGAA (site ATTCGCTCTTT) | 0.571
ATTCTCTCATGGACCGGTTTTCCCGGTAATCCGTATTTGTA (site ATTCTCTCTTA) | 2.35
ATTCTCTCATGGACCGGTTTTCCCGGTAATCCGTATTTGTA (site CTTCTCTCTTA) | 2.42
ATTCTCTCATGGACCGGTTTTCCCGGTAATCCGTATTTGTA (site GTTCTCTCTTA) | 1.52
ATTCTCTCATGGACCGGTTTTCCCGGTAATCCGTATTTGTA (site TTTCTCTCTTA) | 1.58
ATTCTTACATGGACCGGTTTTCCCGGTAATCCGTATTTGAG (site ATTCTTACTCT) | 0.0416
ATTGAAACATGGACCGGTTTTCCCGGTAATCCGTATTTGGC (site ATTGAAACTGC) | 2.15
ATTGAAGCATGGACCGGTTTTCCCGGTAATCCGTATTTGCA (site ATTGAAGCTTG) | 2.44
ATTGACACATGGACCGGTTTTCCCGGTAATCCGTATTTGAC (site ATTGACACTGT) | 2.61
ATTGAGACATGGACCGGTTTTCCCGGTAATCCGTATTTGAT (site ATTGAGACTAA) | 0.37
ATTGAGACATGGACCGGTTTTCCCGGTAATCCGTATTTGAT (site ATTGAGACTAC) | 0.217
ATTGAGACATGGACCGGTTTTCCCGGTAATCCGTATTTGAT (site ATTGAGACTAG) | 0.528
ATTGAGACATGGACCGGTTTTCCCGGTAATCCGTATTTGAT (site ATTGAGACTAT) | 2.01
ATTGATACATGGACCGGTTTTCCCGGTAATCCGTATTTGCG (site CCACTCCCTGT) | 0
ATTGCACCATGGACCGGTTTTCCCGGTAATCCGTATTTGGT (site ATTGCACCTAC) | 0.00574
ATTGCCACATGGACCGGTTTTCCCGGTAATCCGTATTTGCC (site ATTGCCACTGG) | 1.95
ATTGTAACATGGACCGGTTTTCCCGGTAATCCGTATTTGAG (site ATTGTAACTCT) | 0.94

Sequence | recombinant UMI read abundance (log10)
ATTGTATCATGGACCGGTTTTCCCGGTAATCCGTATTTGTC (site ATTGTATCTGA) | 1.56
ATTGTGACATGGACCGGTTTTCCCGGTAATCCGTATTTGCT (site ATTGTGACTAG) | 2.98
ATTTCAACATGGACCGGTTTTCCCGGTAATCCGTATTTGAC (site ATTTCAACTGT) | 0.461
ATTTCCACATGGACCGGTTTTCCCGGTAATCCGTATTTGTC (site ATTTCCACTGA) | 0.636
ATTTGGGCATGGACCGGTTTTCCCGGTAATCCGTATTTGGG (site ATTTGGGCTCC) | 0.0319
CAAAATCCATGGACCGGTTTTCCCGGTAATCCGTATTTGTA (site CAAAATCCTTA) | 1.8
CAAAGGGCATGGACCGGTTTTCCCGGTAATCCGTATTTGTA (site CAAAGGGCTTA) | 2.57
CAAAGTCCATGGACCGGTTTTCCCGGTAATCCGTATTTGTA (site AAAAGTCCTTA) | 0.474
CAAAGTCCATGGACCGGTTTTCCCGGTAATCCGTATTTGTA (site CAAAGTCCTTA) | 2.04
CAAAGTCCATGGACCGGTTTTCCCGGTAATCCGTATTTGTA (site GAAAGTCCTTA) | 0.405
CAAAGTCCATGGACCGGTTTTCCCGGTAATCCGTATTTGTA (site TAAAGTCCTTA) | 0.742
CAAATATCATGGACCGGTTTTCCCGGTAATCCGTATTTGAC (site CAAATATCTGT) | 1.58
CAAATATCATGGACCGGTTTTCCCGGTAATCCGTATTTGAC (site CTAGTATCTGT) | 0.632
CAACATACATGGACCGGTTTTCCCGGTAATCCGTATTTGGG (site CAACATACTCC) | 0.887
CAACTCTCATGGACCGGTTTTCCCGGTAATCCGTATTTGGT (site CAACTCTCTAC) | 2.56
CAACTGACATGGACCGGTTTTCCCGGTAATCCGTATTTGCA (site CAACTGACTTG) | 2.73
CAACTTCCATGGACCGGTTTTCCCGGTAATCCGTATTTGTT (site CAACTTCCTAA) | 1.5
CAAGAAGCATGGACCGGTTTTCCCGGTAATCCGTATTTGCT (site CAAGAAGCTAG) | 1.55
CAAGAAGCATGGACCGGTTTTCCCGGTAATCCGTATTTGCT (site CAAGCAGCTAG) | 0
CAAGAAGCATGGACCGGTTTTCCCGGTAATCCGTATTTGCT (site CAAGGAGCTAG) | 1.87
CAAGAAGCATGGACCGGTTTTCCCGGTAATCCGTATTTGCT (site CAAGTAGCTAG) | 1.17
CAAGAGTCATGGACCGGTTTTCCCGGTAATCCGTATTTGGT (site CAAGAGTCTAC) | 2.79
CAAGATTCATGGACCGGTTTTCCCGGTAATCCGTATTTGGG (site CAAGATTCTCC) | 0.89
CAAGCACCATGGACCGGTTTTCCCGGTAATCCGTATTTGCT (site CAAGCAACTAG) | 0
CAAGCACCATGGACCGGTTTTCCCGGTAATCCGTATTTGCT (site CAAGCACCTAG) | 0.47
CAAGCACCATGGACCGGTTTTCCCGGTAATCCGTATTTGCT (site CAAGCAGCTAG) | 0.0135
